In one assay the test system is UBE2M mutant KBM7 cells. The assay can be described thus: cells. The format is cell-based. The following applies: for EC50: Homo sapiens, KBM-7, read-out: KBM7_UBE2M_mut. Here is the method:
(§1) KBM7 cells with the specified genetic backgrounds were grown in IMDM supplemented with 10% FBS and 1% penicillin/streptomycin (pen/strep). AsPC1, HCT116, NCI-H446 and 293T cells were grown in DMEM 10% FBS and 1% pen/strep. MV4; 11, Jurkat and Be (2) C cells were grown in RPMI 10% FBS 1% pen/strep. KBM7, AsPC1 and HCT116 cells expressing Cas9 were generated using the plasmid Lenti_Cas9_Blasti (Addgene #52962). The lentiviral plasmid lentiGuide-Puro (Addgene #52963) was used to express sgRNAs against the genes UBE2M (in KBM7-Cas9, AsPC1-Cas9 and HCT116-Cas9 cells), UBE2G1 (in KBM7-Cas9 cells) and […] (in KBM7-Cas9 cells). The lentiviral plasmid lentiGuide-Puro-IRES-mCherry (modified from Addgene #52963) was used to express sgRNAs against CUL4A (in KBM7-Cas9 cells). The lentiviral plasmid pLenti-PGK-Hygro-DEST-UBE2M was generated by Gateway cloning (empty destination vector Addgene #19066), and used to generate UBE2M^resc KBM7 cells. […]
(§2) Following this observation, it was rationalized that novel small molecule degraders can be identified in an unbiased manner, simply by searching for compounds that lose activity in the absence of UBE2M. 2000 small molecules, mostly of unknown function/target, were tested for their antiproliferative effects in human leukemia cells (KBM7). These cells were either transduced with a control sgRNA (KBM7WT), or with an sgRNA targeting UBE2M, leading to a hypomorph (deletion of six amino acids) with a functional impairment (UBE2Mmut).
(§3) Finally, a total of structurally similar analogs was tested to unravel structure-activity relationship of the identified molecules. To that end, their anti-cancer activity was assayed in WT cells, as well as KBM7 cells deficient in genes identified in the genome-wide CRISPR screens (UBE2M, CUL4B, UBE2G1). Moreover, the compounds were also tested in AsPC1 pancreatic cancer cells (WT or UBE2Mmut), MV4; 11 and Jurkat leukemia cells, Be (2) C neuroblastoma cells, and NCI-H446 lung cancer cells (Table 3 at the end of this document)
(§4) KBM7^WT, mutant KBM7 clones (UBE2M^mut, UBE2M^resc, UBE2G1^mut CUL4A^mut, CUL4B^mut), and 3-day doxycycline pretreated KBM7^iCas9_sgDDB1 cells were seeded at a cell density of 50,000 cells/mL in 96-well plates with DMSO or drug, in triplicates. Drugs used: IC020772.1/IC020772.1X, IC021313.2/IC021313.2X, T6938051/T6938051X or THZ531. Cells were treated for 3 days, after which cell viability was assessed according to manufacturer's protocol (CellTiter Glo, Promega G7570). Survival curves and EC50 values were calculated by best-fit analysis of the log 10 drug concentration to fold change of drug-treated cells over DMSO-treated cells. All survival assays included technical triplicates per sample, per experiment.

In another assay the test system is KBM7 WT cells. Description: cells. The format is cell-based. The note with it: for effect on KBM7 cells in dose-ranging viability assays: WT KBM7, 3-day treatment; for EC50: Homo sapiens, KBM-7, read-out: KBM7_WT. Here is the method: as §1, §3, §4
Assay [1] has as its system T1, cyclin K (CCNK) (Homo sapiens).
T1 construct: endogenous in cells; host or cells: KBM7 cells (WT and UBE2M/CUL4B/UBE2G1 mutant clones)
The assay can be described thus: CCNK destabilization/degradation (expression proteomics and Western blot). The assay is classed as cell-based. The following applies: wild-type KBM7 cells. Here is the method: (§5) The hypomorphic phenotype of the mutated UBE2M allele in KBM7 cells (KBM7 UBE2M^mut cells) was assessed. In this regard, CRISPR/Cas9-induced mutation of UBE2M inactivated CRL activity including CRL4^CRBN and CRL2^VHL. […] Additionally, CCNK destabilization by all three compounds was validated via time-resolved immunoblots wherein CCNK degradation was evident after two hours (FIG. 19c).
(§6) Subsequently, a total of 53 structurally related analogue compounds in dose-ranging viability assays in KBM7 wildtype- and UBE2M^mut cells was tested to develop a structure-activity relationship for the assayed compounds. This informed on sites amenable for derivatization of analogs (FIG. 20a), and also to the identification of structurally similar small molecules with no measurable activity that are thus suited negative controls. […] CRL activity-dependent degradation of CCNK could be rescued by pharmacologic NAE inhibition and by blocking the ubiquitin activating enzyme UBA1, particularly by pretreating the cells with 1 μM carfilzomib (Selleckchem, S2853), 1 μM MLN4924 (Selleckchem, S7109), 10 μM TAK-243 (MedChemExpress, HY-100487) or 1 μM THZ531 (MedChemExpress HY-103618) (FIG. 19d). Furthermore, treatment with the selective covalent CDK12/13 inhibitor THZ531, which binds to the ATP binding pocket of CDK12/13, rescued CCNK degradation (FIG. 19d) indicating the role of the active site of CDK12/13 for CRL activity-dependent CCNK degradation by the identified compounds (FIG. 19d).
(§7) PBS-washed cell pellets were lysed in 50 mM Tris pH 7.9, 8M Urea and 1% CHAPS and incubated with shaking at 4° C. for at least 30 min. 20 μg of supernatants were run and transferred for detection. Antibodies used: CUL1 (Santa Cruz Biotechnology, sc-1276), CUL2 (Sigma-Aldrich, SAB2501565-100), CUL3 (Cell Signaling Technology, 2759), CUL4A (Cell Signaling Technology, 2699S), CUL4B (Proteintech, 12916-1-AP), CUL5 (Santa Cruz Biotechnology, sc-373822), UBE2M (Santa Cruz Biotechnology, sc-390064), DDB1 (Cell Signaling Technology, 5428S), CCNK (Bethyl, A301-939A), CDK12 (Cell Signaling Technology, 11973S), CDK13 (Bethyl, A301-458A), RBM39 (1:500, Santa Cruz Biotechnology sc-376531), V5 (Cell Signaling Technology, 13202), Ubiquityl-Histone H2A (K119) (Cell Signaling, 8240-20). ACTIN (Sigma-Aldrich, A5441), VINCUL1N (Santa Cruz Biotechnology, sc-25336). Secondary antibodies anti-mouse/rabbit/goat (Jackson ImmunoResearch 115-035-003, 111-035-003 and 705-035-003).
(§8) Comparison of overall proteome-wide changes in KBM7 cells treated with IC020772.1 (2.5 μM), IC021313.2 (7 μM) or T6938051 (3.5 μM) for 5 h and 12h, using quantitative proteomics based on isobaric tagging.

The test system of a further assay is KBM7 UBE2G1mut cells. The assay can be described thus: cells. The format is cell-based. The following applies: Homo sapiens, KBM-7, read-out: KBM7_UBE2G1_mut. Here is the method:
as §1, §3, §4

For a further assay, the system named is KBM7 CUL4Bmut cells. Description: cells. The format is cell-based. The note with it: Homo sapiens, KBM-7, read-out: KBM7_CUL4B_mut. Here is the method:
as §1, §3, §4

Assay [2] has as its system KBM7 WT and UBE2Mmut cells. The assay can be described thus: Primary phenotypic screen, differential viability KBM7 WT vs UBE2M mutant. The assay is classed as cell-based, human. The following applies: 10 μM and 500 nM, 3 days. Here is the method:
as §2
KBM7^WT and UBE2M^mut cells were treated with a compound library (2000 cytotoxic diverse small-molecules, mostly of unknown function/target). Briefly, the screening was divided in three parts 1) primary screening, 2) follow up and 3) validation. During the primary screening, cells were treated with 10 μM and 500 nM of every compound. […] After 3 days of treatment, cell viability was measured (CellTiter Glo, Promega). The screen was perform in 384-well plates (Corning 3712) and the reagent/compound dispensing system used was: Echo 520 Liquid Handler, Multidrop™ Combi Reagent Dispenser. Control compounds were included in several wells, in all the plates. Method for validation of IC021313.2, IC020822.1, IC020772.1, T6938051 as described above in (i).

Another assay addresses T2, cyclin K (CCNK) (Homo sapiens, UniProt Q16531+Q9NYV4).
T2 construct: endogenous in cells; host or cells: KBM7 cells (WT and UBE2M/CUL4B/UBE2G1 mutant clones)
The assay can be described thus: CCNK destabilization/degradation (expression proteomics and Western blot). The format is cell-based. The note with it: for rescue of drug-induced CCNK degradation by pretreatment: 30 min pretreatment before IC020772.1 (2.5 μM, 5h), 1 μM carfilzomib, 1 μM MLN4924, 10 μM TAK-243, 1 μM THZ531. Here is the method: as §5, §6, §7, §8
For orientation: A western blot detects proteins with antibodies after separation by electrophoresis.

For a further assay, the target named is T3, DCAF15 (Homo sapiens, UniProt Q66K64).
T3 construct: expressed in transfected cells; host or cells: 293T cells, DCAF15 knocked out, additionally transduced with LgBit
T3 sequence (Q66K64 whole entry): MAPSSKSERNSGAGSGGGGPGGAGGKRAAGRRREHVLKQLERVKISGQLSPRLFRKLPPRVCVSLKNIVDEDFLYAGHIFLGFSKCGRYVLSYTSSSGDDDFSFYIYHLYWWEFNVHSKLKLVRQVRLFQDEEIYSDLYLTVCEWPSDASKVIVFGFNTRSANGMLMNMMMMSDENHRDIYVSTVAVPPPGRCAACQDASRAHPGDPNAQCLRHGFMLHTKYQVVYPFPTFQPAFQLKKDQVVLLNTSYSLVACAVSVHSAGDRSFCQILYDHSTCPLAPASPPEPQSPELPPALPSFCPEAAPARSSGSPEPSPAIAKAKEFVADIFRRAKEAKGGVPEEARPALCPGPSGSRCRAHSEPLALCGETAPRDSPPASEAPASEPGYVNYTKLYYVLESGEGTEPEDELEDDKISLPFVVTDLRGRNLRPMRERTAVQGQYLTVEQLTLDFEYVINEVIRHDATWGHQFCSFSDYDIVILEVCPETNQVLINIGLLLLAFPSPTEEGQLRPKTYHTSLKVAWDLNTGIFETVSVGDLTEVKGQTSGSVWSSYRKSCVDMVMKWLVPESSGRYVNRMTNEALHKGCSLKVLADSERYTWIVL
The assay can be described thus: DCAF15 stabilization, live-cell HiBit/LgBit bioluminescence screen. The assay is classed as cell-based. The note with it: 10 μM, 293T cells expressing HiBit-DCAF15. An excerpt:
Subsequently, in this context, the E3 ligase substrate receptor (SR) stabilization approach was employed in order to identify novel chemical matter that can bind and chemically re-program the substrate receptor DCAF15. To be able to screen a collection of around 8000 small-molecules, a cellular system was developed that enabled monitoring of DCAF15 levels in live cells in multi-well format. To that end, DCAF15 was first knocked out in 293T cells via CRISPR/Cas9 technology. Then, DCAF15 was stably expressed as a HiBit® fusion protein in these cells. After further transducing these cells with LgBit, this allowed live-cell tracing of DCAF15 levels in 384 well format by measuring bioluminescence (FIG. 13).
In brief, cells were seeded at a concentration of 250′000 cells/ml in DMEM+10% FCS+25 mM Hepes. The luciferase substrate Endurazine was added at concentrations recommended by the manufacturer. Small-molecules were added at a concentration of 10 μM, and their effect on DCAF15 levels was assayed by continuous bioluminescent imaging (measurements were taken every 120 minutes). In total, 8000 compounds were tested.
The known DCAF15 molecular glue indisulam was used as a positive control. In brief, indisulam is known to act as a DCAF15-dependent molecular glue that binds DCAF15 and induced proximity between DCAF15 and RBM39, leading to the degradation of the latter. […]
(With HiBiT, luminescence reflects the tagged protein that the partner subunit can reach.)

T1 sequence (O75909 whole entry partner): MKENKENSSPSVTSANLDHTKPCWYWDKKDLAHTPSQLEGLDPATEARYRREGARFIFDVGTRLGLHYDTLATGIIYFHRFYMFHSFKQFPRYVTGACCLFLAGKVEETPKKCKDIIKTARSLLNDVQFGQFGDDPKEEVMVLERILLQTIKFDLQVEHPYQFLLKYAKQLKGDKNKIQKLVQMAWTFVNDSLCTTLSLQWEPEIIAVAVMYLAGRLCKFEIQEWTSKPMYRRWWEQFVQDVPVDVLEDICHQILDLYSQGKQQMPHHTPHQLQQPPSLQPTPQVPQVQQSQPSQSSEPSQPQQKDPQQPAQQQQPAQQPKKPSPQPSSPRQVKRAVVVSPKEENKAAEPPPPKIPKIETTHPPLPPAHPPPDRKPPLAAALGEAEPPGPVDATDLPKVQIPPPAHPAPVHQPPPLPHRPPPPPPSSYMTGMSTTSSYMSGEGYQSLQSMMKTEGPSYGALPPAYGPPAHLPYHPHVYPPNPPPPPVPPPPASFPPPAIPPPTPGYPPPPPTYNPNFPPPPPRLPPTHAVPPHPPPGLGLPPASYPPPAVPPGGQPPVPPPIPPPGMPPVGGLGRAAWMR
T1 sequence (Q9NYV4 whole entry, further chain): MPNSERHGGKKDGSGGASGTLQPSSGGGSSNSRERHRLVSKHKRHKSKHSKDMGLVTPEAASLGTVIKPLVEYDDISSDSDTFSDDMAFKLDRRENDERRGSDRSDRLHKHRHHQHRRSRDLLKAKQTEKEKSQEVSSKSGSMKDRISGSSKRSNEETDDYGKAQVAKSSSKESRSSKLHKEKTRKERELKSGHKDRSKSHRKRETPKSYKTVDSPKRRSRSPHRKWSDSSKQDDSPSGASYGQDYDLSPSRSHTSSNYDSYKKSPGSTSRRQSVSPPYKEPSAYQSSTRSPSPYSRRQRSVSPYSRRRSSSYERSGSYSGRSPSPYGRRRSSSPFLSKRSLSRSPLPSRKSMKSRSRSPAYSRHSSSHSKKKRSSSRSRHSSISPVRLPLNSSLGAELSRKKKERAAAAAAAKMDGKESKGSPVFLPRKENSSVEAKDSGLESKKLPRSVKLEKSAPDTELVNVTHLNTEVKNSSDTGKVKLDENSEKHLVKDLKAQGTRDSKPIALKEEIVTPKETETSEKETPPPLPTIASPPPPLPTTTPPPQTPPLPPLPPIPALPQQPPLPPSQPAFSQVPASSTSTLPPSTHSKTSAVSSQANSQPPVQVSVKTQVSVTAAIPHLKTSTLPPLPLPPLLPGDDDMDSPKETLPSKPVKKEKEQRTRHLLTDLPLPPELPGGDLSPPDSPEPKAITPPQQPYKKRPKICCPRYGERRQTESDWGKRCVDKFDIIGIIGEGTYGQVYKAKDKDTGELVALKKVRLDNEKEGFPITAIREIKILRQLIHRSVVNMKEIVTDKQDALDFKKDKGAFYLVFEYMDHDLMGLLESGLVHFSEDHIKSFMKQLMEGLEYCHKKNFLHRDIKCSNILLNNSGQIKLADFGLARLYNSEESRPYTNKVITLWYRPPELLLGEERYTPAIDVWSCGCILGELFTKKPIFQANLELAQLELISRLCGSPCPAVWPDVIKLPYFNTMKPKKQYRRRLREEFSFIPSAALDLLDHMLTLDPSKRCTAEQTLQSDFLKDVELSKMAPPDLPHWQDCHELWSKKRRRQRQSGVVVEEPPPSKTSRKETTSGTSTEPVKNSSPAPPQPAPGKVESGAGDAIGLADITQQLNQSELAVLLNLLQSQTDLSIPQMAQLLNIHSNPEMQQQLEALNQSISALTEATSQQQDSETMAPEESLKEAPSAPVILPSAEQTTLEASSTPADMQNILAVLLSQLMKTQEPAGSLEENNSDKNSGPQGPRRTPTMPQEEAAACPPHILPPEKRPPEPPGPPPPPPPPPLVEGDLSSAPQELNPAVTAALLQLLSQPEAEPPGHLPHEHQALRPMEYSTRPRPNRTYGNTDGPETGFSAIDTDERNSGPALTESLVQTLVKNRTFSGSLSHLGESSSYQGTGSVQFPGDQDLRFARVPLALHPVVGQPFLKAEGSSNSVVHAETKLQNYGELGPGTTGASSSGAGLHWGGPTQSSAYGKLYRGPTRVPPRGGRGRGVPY
T1 sequence (Q16531 2-1140 limits assumed, further chain): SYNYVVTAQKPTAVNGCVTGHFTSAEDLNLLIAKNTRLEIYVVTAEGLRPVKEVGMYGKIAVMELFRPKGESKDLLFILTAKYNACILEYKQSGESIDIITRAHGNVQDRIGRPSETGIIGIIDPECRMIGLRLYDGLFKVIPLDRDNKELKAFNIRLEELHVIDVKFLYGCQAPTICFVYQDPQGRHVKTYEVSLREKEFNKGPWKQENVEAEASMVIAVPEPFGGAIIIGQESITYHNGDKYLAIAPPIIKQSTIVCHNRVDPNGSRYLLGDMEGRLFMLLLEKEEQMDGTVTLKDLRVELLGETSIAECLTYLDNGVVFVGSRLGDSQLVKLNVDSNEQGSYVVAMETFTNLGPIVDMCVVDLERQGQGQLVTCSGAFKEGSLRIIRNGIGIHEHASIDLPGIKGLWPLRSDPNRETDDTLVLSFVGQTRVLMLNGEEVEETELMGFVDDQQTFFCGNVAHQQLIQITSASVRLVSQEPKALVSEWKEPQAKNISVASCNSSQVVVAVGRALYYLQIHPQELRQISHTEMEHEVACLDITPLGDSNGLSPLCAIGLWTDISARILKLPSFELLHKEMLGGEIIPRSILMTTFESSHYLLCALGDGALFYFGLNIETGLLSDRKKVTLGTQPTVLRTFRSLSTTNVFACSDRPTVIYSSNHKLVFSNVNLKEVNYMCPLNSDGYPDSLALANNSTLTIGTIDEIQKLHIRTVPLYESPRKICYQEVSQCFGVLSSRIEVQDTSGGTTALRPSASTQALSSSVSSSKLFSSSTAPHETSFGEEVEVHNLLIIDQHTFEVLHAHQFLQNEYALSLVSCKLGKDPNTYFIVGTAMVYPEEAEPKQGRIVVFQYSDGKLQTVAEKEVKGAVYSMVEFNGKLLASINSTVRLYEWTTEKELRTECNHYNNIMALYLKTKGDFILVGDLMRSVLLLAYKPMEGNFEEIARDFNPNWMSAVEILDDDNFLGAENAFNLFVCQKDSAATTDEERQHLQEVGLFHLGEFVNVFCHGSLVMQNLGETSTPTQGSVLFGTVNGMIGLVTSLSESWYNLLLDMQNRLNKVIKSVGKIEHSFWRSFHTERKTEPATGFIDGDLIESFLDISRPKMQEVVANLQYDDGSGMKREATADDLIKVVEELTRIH
T1 sequence (Q13620 whole entry partner): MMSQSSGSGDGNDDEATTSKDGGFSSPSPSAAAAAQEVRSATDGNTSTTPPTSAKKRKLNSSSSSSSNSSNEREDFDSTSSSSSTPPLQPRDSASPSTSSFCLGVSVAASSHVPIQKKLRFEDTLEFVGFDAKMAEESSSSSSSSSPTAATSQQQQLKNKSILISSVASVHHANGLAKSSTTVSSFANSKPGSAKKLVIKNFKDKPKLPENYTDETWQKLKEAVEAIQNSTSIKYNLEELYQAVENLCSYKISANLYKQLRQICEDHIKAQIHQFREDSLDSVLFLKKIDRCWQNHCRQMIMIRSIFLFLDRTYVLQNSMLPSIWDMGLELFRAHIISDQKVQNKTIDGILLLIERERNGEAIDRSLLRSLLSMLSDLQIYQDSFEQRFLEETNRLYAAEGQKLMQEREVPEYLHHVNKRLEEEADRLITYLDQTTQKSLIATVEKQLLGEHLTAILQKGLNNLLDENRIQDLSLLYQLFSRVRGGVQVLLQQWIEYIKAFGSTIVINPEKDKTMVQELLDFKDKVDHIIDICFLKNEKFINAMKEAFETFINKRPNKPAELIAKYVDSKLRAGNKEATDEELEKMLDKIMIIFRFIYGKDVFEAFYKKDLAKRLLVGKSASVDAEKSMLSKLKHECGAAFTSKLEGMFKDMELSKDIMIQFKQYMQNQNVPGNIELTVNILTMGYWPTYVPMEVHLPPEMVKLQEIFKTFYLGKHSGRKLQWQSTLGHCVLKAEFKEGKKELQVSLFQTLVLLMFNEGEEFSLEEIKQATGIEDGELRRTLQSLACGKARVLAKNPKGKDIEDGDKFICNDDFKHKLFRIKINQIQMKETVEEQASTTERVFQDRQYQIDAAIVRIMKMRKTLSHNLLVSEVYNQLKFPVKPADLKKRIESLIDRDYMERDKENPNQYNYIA
T1 sequence (P62877 whole entry partner): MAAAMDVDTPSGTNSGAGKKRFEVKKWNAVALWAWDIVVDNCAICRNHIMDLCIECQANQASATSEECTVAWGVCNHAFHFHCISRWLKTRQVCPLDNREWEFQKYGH
T2 sequence (O75909 whole entry partner): as the sequence (O75909 whole entry partner) above
T2 sequence (Q9NYV4 whole entry): as the sequence (Q9NYV4 whole entry, further chain) above
T2 sequence (Q16531 2-1140 limits assumed): as the sequence (Q16531 2-1140 limits assumed, further chain) above
T2 sequence (Q13620 whole entry partner): as the sequence (Q13620 whole entry partner) above
T2 sequence (P62877 whole entry partner): as the sequence (P62877 whole entry partner) above

On to `Cc1ncsc1-c1ccc([C@H](C)NC(=O)[C@@H]2C[C@@H](O)CN2C(=O)[C@@H](NC(=O)COCCCOCCNC(=O)C[C@@H]2N=C(c3ccc(Cl)cc3)c3c(sc(C)c3C)-n3c(C)nnc32)C(C)(C)C)cc1` [ARV-771, reference compound], for which the “anti-proliferative effect upon mutation of UBE2M” value with UBE2M mutant KBM7 cells (KBM7 UBE2M mutant vs WT) is “efficacy is significantly abrogated”.
Turning to `Cc1ccc(NC(=O)C2CSCN2C(=O)c2ccc(C)o2)cc1` (stereo not shown) [Compound T6938051X], the “effect on KBM7 cells in dose-ranging viability assays” value (“effect on KBM7 cells” below) in the assay on KBM7 WT cells is on record as “did not affect KBM7 cells”. Moreover, the CCNK destabilization result in assay [1] is reported as “failed to induce pronounced CCNK destabilization”.
Consider `O=C(CSc1nc2ccccc2[nH]1)Nc1ccc(Cl)cn1` [Compound Z54609541, 2-((1H-benzo[d]imidazol-2-yl)thio)-N-(5-chloropyridin-2-yl) acetamide], for which the EC50 was found to be 24.4 µM in the assay with UBE2M mutant KBM7 cells, 7.6 µM in the assay with KBM7 UBE2G1mut cells, 2.41 µM with KBM7 WT cells and 11.9 µM in the assay on KBM7 CUL4Bmut cells.
Turning to `O=C(CSc1nc2ccccc2[nH]1)Nc1ccc(Br)cn1` [Compound Z201181756, 2-((1H-benzo[d]imidazol-2-yl)thio)-N-(5-bromopyridin-2-yl) acetamide], the EC50 in the assay on UBE2M mutant KBM7 cells stood at 34.7 µM; in the assay on KBM7 UBE2G1mut cells, 6.17 µM; in the assay on KBM7 WT cells, 1.41 µM; in the assay with KBM7 CUL4Bmut cells, 12.6 µM.
For `CCCn1c2ccccc2c2nnc(SCC(=O)Nc3ccc(Cl)cn3)nc21` [IC020772.1X], the “effect on KBM7 cells” value with KBM7 WT cells was “did not affect KBM7 cells”. Moreover, the CCNK destabilization result in assay [1] is “failed to induce pronounced CCNK destabilization”.
On to `O=C(CSc1nc2ccccc2[nH]1)Nc1ccc(Br)cn1` [IC020822.1], for which the “hit in differential viability screen” value in assay [2] is listed as “stood out in terms of fold-change significance”.
As for `O=C(CSc1nc2ccccc2[nH]1)Nc1ccccn1` [IC021313.2X], the “effect on KBM7 cells” value with KBM7 WT cells was “did not affect KBM7 cells”. For the same molecule, the CCNK destabilization result in assay [1] was “failed to induce pronounced CCNK destabilization”.
In the case of `NS(=O)(=O)OC[C@@H]1C[C@@H](n2ccc3c(N[C@H]4CCc5ccccc54)ncnc32)C[C@@H]1O` [MLN4924, reference compound], on cyclin K (CCNK), the “rescue of drug-induced CCNK degradation by pretreatment” value (from here on “rescue”) is “rescued”.
`NS(=O)(=O)OC[C@H]1C[C@@H](Nc2ccnc3cc(-c4cccc(SC(F)(F)F)c4)nn23)[C@H](O)[C@@H]1O` [TAK-243, reference compound]: the “rescue” value at cyclin K (CCNK) was “rescued”.
As to `CN(C)C/C=C/C(=O)Nc1ccc(C(=O)N2CCC[C@@H](Nc3ncc(Cl)c(-c4c[nH]c5ccccc45)n3)C2)cc1` [THZ531, reference compound], the “rescue” value at cyclin K (CCNK) is recorded as “rescued”. For the same molecule, the “effect on CCNK upon inactivation of DDB1, UBE2G1 and UBE2M” value at cyclin K (CCNK) (CRISPR-inactivated KBM7 cells) is “not affected”.
As to `CC(C)C[C@H](NC(=O)[C@H](CCc1ccccc1)NC(=O)CN1CCOCC1)C(=O)N[C@@H](Cc1ccccc1)C(=O)N[C@@H](CC(C)C)C(=O)[C@@]1(C)CO1` [carfilzomib, reference compound], the “rescue” value on cyclin K (CCNK) is recorded as “rescued”.
For `NS(=O)(=O)c1ccc(S(=O)(=O)Nc2cccc3c(Cl)c[nH]c23)cc1` [indisulam, reference compound], the “DCAF15 stabilization (relative luciferase signal over time)” value at DCAF15 is “pronounced stabilization of DCAF15”.

These data come from patent US12410152B2, “Oxazole and thioazole-type cullin ring ubiquitin ligase compounds and uses thereof” (Proxygen GmbH, priority 2019, dated 2025).
